Data on 15 molecules can be found in patent publication US5880258A (dated 1999).

Assay [1] has as its target T1, thrombin (Homo sapiens, UniProt P00734). Put plainly: anti-thrombin activity; clotting assay (coagulation time with fibrinogen as substrate). Format: biochemical. The arrangement: 100 μl of human-thrombin prepared at 10 NIH units/ml in aforesaid buffer. As to conditions: for Potency: calculated using the definition that HV-1 (54-65) potency is 1; for IC50: concentration corresponding to 50 thrombin units, human-thrombin 10 NIH units/ml, human-fibrinogen 6 mg/ml, read-out: 50% Inhibition Concentration (converted). As for the experimental part:
Measurement of anti-thrombin activity was done by looking at anti-coagulant activity as an index using fibrinogen as the substrate. That is, the compounds were dossolved in 200 μl of 0.1 mM Tris-HCl buffer (pH7.5) containing 0.1% polyethyleneglycol-6000, 100 μl of human-thrombin prepared at 10 NIH units/ml in aforesaid buffer, were added 200 μl of human-fibrinogen (Sigma) prepared at 6 mg/ml in aforesaid tris-hydrochloride buffer were added, and the coagulation time of the reaction mixtures were measured. For measuring of coagulation times, coagulation time analyzer (Amelung KC10A) was used. Obtained values were converted into units by using a previously prepared thrombin standard curve. Graphs were prepared by plotting the converted values on the vertical axis, and the concentrations of the compounds on the horizontal axis. In the graphs, the thrombin unit was defined as 100 at a compound concentration of 0. The concentration of compounds corresponding to 50 units were defined as 50% inhibitory concentrations of compounds.

For assay [2], the target named is T1, thrombin. The experiment in a line: anti-thrombin activity; chromogenic assay (Chromozym TH hydrolysis, apparent dissociation constant Ki'). Format: biochemical. Set-up: 100 μl of human-thrombin prepared at 10 NIH units/ml in aforesaid buffer. To be noted: for pKi: apparent dissociation constant, 350 pM human-thrombin, 100 μM Chromozym TH, 37° C.; for Potency: relative to hirudin HV-1 = 1. Here is the method:
Anti-thrombin activities were measured by measuring the degree of inhibition of thrombin's hydrolytic activity on synthetic substrate Chromozym TH (Tocylglycil-prolylarginine-4-nitroanilideacetate). This reaction was carried out as follows. […] Here, the molar concentration of aforementioned human-thrombin was determined by the method of active site titration [G. W. Jameson et al., Biochem. J., 131, p107-117 (1973)] using 4-methylunberifenyl-p-guanidinobenzoate as substrate. After the pre-incubation, Chromozym TH (product of Boehringer-Mannheim) was added to a final concentration of 100 μM, and released p-nitroanilide was measured at the wave length of 405 nm, and the initial velocity of the hydrolytic reactions were measured for each of the abovementioned hirudins at various concentrations. From this initial velocity of the hydrolytic reactions, the apparent dissociation constants Ki' were calculated by the method of S. R. Stone et al. [Biochemistry, 25, p4622-4628 (1986)].

pKi: −log10 of the molar value. *1 amine or outer side, *2 acyl side, *3 side chain or, on linkers, in order; H or OH if unused. Where a SMILES comes first, the peptide text is derived from it. Where no end group is shown, it is not given here. [ ]: non-standard residue; d: D form. sY = N[C@@H](Cc1ccc(OS(=O)(=O)O)cc1)C(=O)O; Asu = N[C@@H](CCCCCC(=O)O)C(=O)O; Suc = O=C(CCC(=O)[*:2])[*:1]; Ava = NCCCCC(=O)O; βAla = NCCC(=O)O

In the case of `CC[C@H](C)[C@H](NC(=O)[C@@H]1CCCN1C(=O)[C@H](CCC(=O)O)NC(=O)[C@H](Cc1ccccc1)NC(=O)[C@H](CC(=O)O)NC(=O)CNC(=O)CCC(=O)O)C(=O)N1CCC[C@H]1C(=O)N[C@@H](Cc1ccc(OS(=O)(=O)O)cc1)C(=O)N[C@@H](Cc1ccc(OS(=O)(=O)O)cc1)C(=O)N[C@@H](Cc1ccc(OS(=O)(=O)O)cc1)C(=O)N[C@@H](CC(C)C)C(=O)N[C@@H](CCC(N)=O)C(=O)O` [Sulfated form of (E), Suc--Gly--Asp--Phe--Glu--Pro--Ile--Pro--Tyr(SO3 H)--Tyr(SO3 H)--Tyr(SO3 H)--Leu--Gln--OH] (Suc-GDFEPIP[sY][sY][sY]LQ-OH), in assay [1], the Potency is listed as 44.41 and the IC50 was 80.7 nM. In the same order, the values of `CC[C@H](C)[C@H](NC(=O)[C@@H]1CCCN1C(=O)[C@H](CCC(=O)O)NC(=O)[C@H](Cc1ccccc1)NC(=O)[C@H](CC(=O)O)NC(=O)CCC(=O)O)C(=O)N1CCC[C@H]1C(=O)N[C@@H](CCC(=O)O)C(=O)N[C@@H](Cc1ccc(OS(=O)(=O)O)cc1)C(=O)N[C@@H](Cc1ccc(OS(=O)(=O)O)cc1)C(=O)N[C@@H](CC(C)C)C(=O)N[C@@H](CCC(N)=O)C(=O)O` [Sulfated form of (F), Suc--Asp--Phe--Glu--Pro--Ile--Pro--Glu--Tyr(SO3 H)--Tyr(SO3 H)--Leu--Gln--OH] (Suc-DFEPIPE[sY][sY]LQ-OH) are 1.32 and 3000 nM. Consider `CC[C@H](C)[C@H](NC(=O)[C@@H]1CCCN1C(=O)[C@H](CCC(=O)O)NC(=O)[C@H](Cc1ccccc1)NC(=O)CCC(=O)O)C(=O)N1CCC[C@H]1C(=O)N[C@@H](CCC(=O)O)C(=O)N[C@@H](Cc1ccc(OS(=O)(=O)O)cc1)C(=O)N[C@@H](Cc1ccc(OS(=O)(=O)O)cc1)C(=O)N[C@@H](CC(C)C)C(=O)N[C@@H](CCC(N)=O)C(=O)O` [Sulfated form of (G), Suc--Phe--Glu--Pro--Ile--Pro--Glu--Tyr(SO3 H)--Tyr(SO3 H)--Leu--Gln--OH] (Suc-FEPIPE[sY][sY]LQ-OH), for which, in assay [1], the Potency is given as 108.87 and the IC50 was 38.9 nM. The matching figures for `CC[C@H](C)[C@H](NC(=O)[C@@H]1CCCN1C(=O)[C@H](CCC(=O)O)NC(=O)CCC(=O)O)C(=O)N1CCC[C@H]1C(=O)N[C@@H](CCC(=O)O)C(=O)N[C@@H](Cc1ccc(OS(=O)(=O)O)cc1)C(=O)N[C@@H](Cc1ccc(OS(=O)(=O)O)cc1)C(=O)N[C@@H](CC(C)C)C(=O)N[C@@H](CCC(N)=O)C(=O)O` [Sulfated form of (H), Suc--Glu--Pro--Ile--Pro--Glu--Tyr(SO3 H)--Tyr(SO3 H)--Leu--Gln--OH] (Suc-EPIPE[sY][sY]LQ-OH): less than 0.05 and more than 142000 nM. In the same order, the values of `CC[C@H](C)[C@H](NC(=O)[C@@H]1CCCN1C(=O)[C@H](CCC(=O)O)NC(=O)[C@H](Cc1ccccc1)NC(=O)CCC(=O)O)C(=O)N1CCC[C@H]1C(=O)N[C@@H](CCC(=O)O)C(=O)N[C@@H](Cc1ccc(OS(=O)(=O)O)cc1)C(=O)N[C@@H](Cc1ccc(OS(=O)(=O)O)cc1)C(=O)O` [Sulfated form of (I), Suc--Phe--Glu--Pro--Ile--Pro--Glu--Tyr(SO3 H)--Tyr(SO3 H)--OH] (Suc-FEPIPE[sY][sY]-OH) are 1.62 and 3100 nM. For `CC[C@H](C)[C@H](NC(=O)[C@@H]1CCCN1C(=O)[C@H](CCC(=O)O)NC(=O)[C@H](Cc1ccccc1)NC(=O)CCC(=O)O)C(=O)N1CCC[C@H]1C(=O)N[C@@H](CCC(=O)O)C(=O)N[C@@H](Cc1ccc(OS(=O)(=O)O)cc1)C(=O)N[C@@H](Cc1ccc(OS(=O)(=O)O)cc1)C(=O)NCCC(=O)O` [Sulfated form of (K), Suc--Phe--Glu--Pro--Ile--Pro--Glu--Tyr(SO3 H)--Tyr(SO3 H)--NH(CH2)2 COOH] (Suc-FEPIPE[sY][sY][βAla]-OH), in assay [1], the Potency is 1.02 and the IC50 was 4650 nM. For the molecule `CC[C@H](C)[C@H](NC(=O)[C@@H]1CCCN1C(=O)[C@H](CCC(=O)O)NC(=O)[C@H](Cc1ccccc1)NC(=O)CCC(=O)O)C(=O)N1CCC[C@H]1C(=O)N[C@@H](CCC(=O)O)C(=O)N[C@@H](Cc1ccc(OS(=O)(=O)O)cc1)C(=O)N[C@@H](Cc1ccc(OS(=O)(=O)O)cc1)C(=O)NCCCCC(=O)O` [Sulfated form of (L), Suc--Phe--Glu--Pro--Ile--Pro--Glu--Tyr(SO3 H)--Tyr(SO3 H)--NH(CH2)4 COOH] (Suc-FEPIPE[sY][sY][Ava]-OH), the IC50 in assay [1] was 2220 nM. Regarding `CC[C@H](C)[C@H](NC(=O)[C@@H]1CCCN1C(=O)[C@H](CCC(=O)O)NC(=O)[C@H](Cc1ccccc1)NC(=O)CCC(=O)O)C(=O)N1CCC[C@H]1C(=O)N[C@@H](CCC(=O)O)C(=O)N[C@@H](Cc1ccc(OS(=O)(=O)O)cc1)C(=O)N[C@@H](Cc1ccc(OS(=O)(=O)O)cc1)C(=O)N[C@@H](CC(C)C)C(=O)O` [Sulfated form of (Q), Suc--Phe--Glu--Pro--Ile--Pro--Glu--Tyr (SO3 H)--Tyr(SO3 H)--Leu--OH] (Suc-FEPIPE[sY][sY]L-OH), in assay [1], the Potency is 1.85 and the IC50 was 2490 nM. In the same order, the values of `CC[C@H](C)[C@H](NC(=O)[C@@H]1CCCN1C(=O)[C@H](CCC(=O)O)NC(=O)[C@H](Cc1ccccc1)NC(=O)CCC(=O)O)C(=O)N1CCC[C@H]1C(=O)N[C@@H](CCC(=O)O)C(=O)N[C@@H](Cc1ccc(OS(=O)(=O)O)cc1)C(=O)N[C@@H](Cc1ccc(OS(=O)(=O)O)cc1)C(=O)N[C@@H](CC(C)C)C(=O)N[C@H](CCC(=O)O)C(=O)O` [Sulfated form of (T), Suc--Phe--Glu--Pro--Ile--Pro--Glu--Tyr(SO3 H)--Tyr(SO3 H)--Leu--(D)Glu--OH] (Suc-FEPIPE[sY][sY]L[dE]-OH) are 8.32 and 509 nM. For `CC[C@H](C)[C@H](NC(=O)[C@@H]1CCCN1C(=O)[C@H](CCC(=O)O)NC(=O)[C@H](Cc1ccccc1)NC(=O)CCC(=O)O)C(=O)N1CCC[C@H]1C(=O)N[C@@H](CCC(=O)O)C(=O)N[C@@H](Cc1ccc(OS(=O)(=O)O)cc1)C(=O)N[C@@H](Cc1ccc(OS(=O)(=O)O)cc1)C(=O)N[C@@H](CC(C)C)C(=O)N[C@@H](CCCCCC(N)=O)C(N)=O` [Sulfated form of (X), Suc--Phe--Glu--Pro--Ile--Pro--Glu--Tyr(SO2 H)--Tyr(SO3 H)--Leu--(L)Asu(NH2)NH2] (Suc-FEPIPE[sY][sY]L[Asu](NH2)-NH2), in assay [1], the IC50 is 2000 nM. For the molecule GDFEEIPEYYLQ [(A)], the IC50 in assay [1] was 9780 nM.

For GDFEEIPYYYLQ [(B)], the IC50 in assay [1] is 9000 nM.

Broadly, the pKi is the Ki on a negative log10 scale, so that one unit is a factor of ten. Consider “Val--Val--Tyr--Thr--Asp--Cys--Thr--Glu--Ser--Gly--Gln--Asn--Leu--Cys--Leu--Cys--Glu--Gly--Ser--Asn--Val--Cys--Gly--Gln--Gly--Asn--Lys--Cys--Ile--Leu--Gly--Ser--Asp--Gly--Glu--Lys--Asn--Gln--Cys--Val--Thr--Gly--Glu--Gly--Thr--Pro--Lys--Pro--Gln--Ser--His--Asn--Asp--Gly--Asp--Phe--Glu--Glu--Ile--Pro--Tyr--Tyr(SO3 H)--Tyr(SO3 H)--Leu--Gln [Sulfated form of hirudin HV-17 peak 1]”, for which, in assay [2], the pKi was 11.55 and the Potency was 2.3.

Take “Val--Val--Tyr--Thr--Asp--Cys--Thr--Glu--Ser--Gly--Gln--Asn--Leu--Cys--Leu--Cys--Glu--Gly--Ser--Asn--Val--Cys--Gly--Gln--Gly--Asn--Lys--Cys--Ile--Leu--Gly--Ser--Asp--Gly--Glu--Lys--Asn--Gln--Cys--Val--Thr--Gly--Glu--Gly--Thr--Pro--Lys--Pro--Gln--Ser--His--Asn--Asp--Gly--Asp--Phe--Glu--Glu--Ile--Pro--Tyr--Tyr(SO3 H)--Tyr--Leu--Gln [Sulfated form of hirudin HV-17 peak 3]”: in assay [2], the pKi is 11.23 and the Potency was 1.1. With “Val--Val--Tyr--Thr--Asp--Cys--Thr--Glu--Ser--Gly--Gln--Asn--Leu--Cys--Leu--Cys--Glu--Gly--Ser--Asn--Val--Cys--Gly--Gln--Gly--Asn--Lys--Cys--Ile--Leu--Gly--Ser--Asp--Gly--Glu--Lys--Asn--Gln--Cys--Val--Thr--Gly--Glu--Gly--Thr--Pro--Lys--Pro--Gln--Ser--His--Asn--Asp--Gly--Asp--Phe--Glu--Glu--Ile--Pro--Tyr--Tyr--Tyr(SO3 H)--Leu--Gln [Sulfated form of hirudin HV-17 peak 2]”, in assay [2], the pKi is 11.37 and the Potency is listed as 1.5.
